Reference: US20240262806A1, “INHIBITORS OF NLRP3” (PTC THERAPEUTICS, INC., priority 2021, published 2024)
Where two headings read alike, the source gives them in different places.

Test system: NLRP3 inflammasome
Assay: IL-1β Secretion Assay (NLRP3-dependent IL-1β secretion in PMA-differentiated THP-1 cells, nigericin activation, HTRF)
Type: cell-based
Conditions: 100 ng/mL PMA 24 h, compound 20 h, 2.5 μM Nigericin 3 h, read-out: IC50 IL-1β Inhibition
Method in brief: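 PMA-differentiated THP-1 cells in RPMI with 5% FBS were treated with compounds at 7 concentrations in threefold DMSO dilutions. NLRP3 was activated with nigericin and secreted IL-1β measured by HTRF. IC50 from a logistic fit of percent inhibition versus concentration.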

[1] = Homo sapiens, THP-1, THP-1 cells

SMILES | IC50 [1] [µM] | IC50 (THP-1 cells) [µM]
CN1CCC[C@@H](Nc2nnc(-c3ccc(C(F)(F)F)cc3C(F)(F)F)c3c2CCC3)C1 [Compound I-259] | 0.01 to 0.1 | –
FC(F)Oc1cc(C(F)(F)F)ccc1-c1nnc(NC[C@H]2CCCO2)n2cccc12 [Compound I-611] | 0.01 to 0.1 | –
CCN1CCC[C@@H](Nc2nnc(-c3ccc(OC(F)(F)F)cc3O)c3c(F)ccn23)C1 [Compound I-604] | 0.001 to 0.01 | –
CN1CCC[C@H]1CNc1nnc(-c2ccc(C(F)(F)F)cc2O)c2ccccc12 [Compound I-87] | 0.001 to 0.01 | –
Oc1cc(C(F)(F)F)ccc1-c1nnc(N[C@@H]2CCOC2)n2cccc12 [Compound I-474] | 0.01 to 0.1 | –
CCN1CCC[C@@H](Nc2nnc(-c3c(O)cc(Cl)cc3F)c3cc(C)nn23)C1 [Compound I-579] | < 0.001 | –
CC(C)N1CCC[C@H](Nc2nnc(-c3ccc(Cl)cc3O)c3cncn23)C1 [Compound I-553] | < 0.001 | –
COc1cc(C(F)(F)F)ccc1-c1nnc(N[C@@H]2CCCN(C)C2)c2c1cnn2C [Compound I-144, 4-[2-Methoxy-4-(trifluoromethyl)phenyl]-1-methyl-N-[(3R)-1-methyl-3-piperidyl]pyrazolo[3,4-d]pyridazin-7-amine] | 0.001 to 0.01 | –
CN1C[C@H](F)C[C@@H](Nc2nnc(-c3ccc(OC(F)(F)F)cc3OC(F)F)c3cccn23)C1 [Compound I-521] | 0.001 to 0.01 | –
COc1ccc(-c2nnc(N[C@@H]3CCCN(CCO)C3)n3cccc23)c(O)c1 [Compound I-358] | 0.001 to 0.01 | –
CCN1C[C@H](F)C[C@@H](Nc2nnc(-c3ccc(C(F)(F)F)cc3C(F)(F)F)c3cccn23)C1 [Compound I-535] | 0.001 to 0.01 | –
CN1CCC[C@@H](Nc2nnc(-c3ccc(Cl)cc3OC(F)F)c3c2CCC3)C1 [Compound I-241] | 0.01 to 0.1 | –
COCOc1cc(-c2ncco2)ccc1-c1nnc(N[C@H]2CCCN(C)C2)c2cnccc12 [Compound I-173] | 0.01 to 0.1 | –
C[C@]1(O)C[C@@H](Nc2nnc(-c3ccc(C(F)(F)F)cc3C(F)(F)F)c3cccn23)C1 [Compound I-532] | 0.001 to 0.01 | –
CO[C@H]1CCC[C@@H](Nc2nnc(-c3ccc(C(F)(F)F)cc3O)c3ccncc23)C1 [Compound I-308] | < 0.001 | –
COc1cc(O)c(-c2nnc(N[C@@H]3CCCN(CCO)C3)n3cccc23)c(F)c1 [Compound I-457] | 0.001 to 0.01 | –
CN1CCC[C@@H](Nc2nnc(-c3c(O)cc(C(F)(F)F)cc3F)c3ccncc23)C1 [Compound I-197] | < 0.001 | –
CN1CCC[C@@H](Nc2nnc(-c3ccc(C4CC4)cc3OC(F)F)c3c2CCC3)C1 [Compound I-246] | 0.01 to 0.1 | –
OCCN1CCC[C@@H](Nc2nnc(-c3ccc(C(F)(F)F)cc3O)c3c2CCCC3)C1 [Compound I-62, 2-[4-[[(3R)-1-(2-hydroxyethyl)-3-piperidyl]amino]-5,6,7,8-tetrahydrophthalazin-1-yl]-5-(trifluoromethyl)phenol] | < 0.001 | –
Cc1cc(O)c(-c2nnc(N[C@@H]3CCCN(CCO)C3)n3cccc23)c(F)c1 [Compound I-341] | 0.001 to 0.01 | –
OCCN1CCC[C@@H](Nc2nnc(-c3ccc(Br)cc3O)c3cncn23)C1 [Compound I-623] | < 0.001 | –
OCCN1CCC[C@@H](Nc2nnc(-c3ccc(Cl)cc3C(F)F)c3cccn23)C1 [Compound I-506] | 0.01 to 0.1 | –

SMILES | IC50 [1] [µM] | IC50 (THP-1 cells) [µM]
CN1CCC[C@@H](Nc2nnc(-c3ccc(Cl)cc3O)c3cncn23)C1 [Compound I-384] | < 0.001 | –
CN1CCCC(Cc2nnc(-c3ccc(C(F)(F)F)cc3O)c3ccncc23)C1 (centres unmarked) [Compound I-567] | 0.01 to 0.1 | –
C[C@]1(O)C[C@@H](Nc2nnc(-c3ccc(C(F)(F)F)cc3O)c3ccncc23)C1 [Compound I-305] | < 0.001 | –
CN1C[C@H](F)C[C@@H](Nc2nnc(-c3c(O)cc(C4CC4)cc3F)c3cccn23)C1 [Compound I-445, 5-Cyclopropyl-3-fluoro-2-[4-[[(3R,5R)-5-fluoro-1-methyl-3-piperidyl]amino]-pyrrolo[1,2-d][1,2,4]triazin-1-yl]phenol] | 0.001 to 0.01 | –
O=C(O)CN1CCC[C@@H](Nc2nnc(-c3ccc(C(F)(F)F)cc3O)c3ccccc23)C1 [Compound I-98, (R)-2-(3-((4-(2-Hydroxy-4-(trifluoromethyl)phenyl)phthalazin-1-yl)amino)piperidin-1-yl)acetic acid] | < 0.001 | –
CCN1CCC[C@H]1CNc1nnc(-c2c(O)cc(C3CC3)cc2F)c2cccn12 [Compound I-583] | 0.001 to 0.01 | –
CN1CCC[C@@H](Nc2nnc(-c3ccc(C4CC4)cc3C(F)(F)F)c3cccn23)C1 [Compound I-534] | < 0.001 | –
CN1CCC[C@@H](Nc2nnc(-c3ccc(C(F)(F)F)cc3O)c3c2N(C)CCO3)C1 [Compound I-117] | 0.01 to 0.1 | –
Oc1cc(C(F)(F)F)ccc1-c1nnc(CC2CCCNC2)c2ccccc12 (centres unmarked) [Compound I-30] | 0.01 to 0.1 | –
Oc1cc(C(F)(F)F)ccc1-c1nnc(N[C@@H]2CC[C@H](O)C2)n2cccc12 [Compound I-448] | 0.01 to 0.1 | –
Oc1cc(Cl)ccc1-c1nnc(N[C@@H]2CCCN(CC(F)(F)F)C2)n2cncc12 [Compound I-558] | 0.001 to 0.01 | –
CCN1CCC[C@@H](Nc2nnc(-c3ccc(C(F)(F)F)cc3C(F)(F)F)c3cccn23)C1 [Compound I-371] | < 0.001 | –
Cc1cc(O)c(-c2nnc(N[C@@H]3CCC[C@H](O)C3)n3cccc23)c(F)c1 [Compound I-422] | 0.001 to 0.01 | –
COc1ccc(-c2nnc(N[C@@H]3CCCN(C)C3)c3cnccc23)c(C)c1 [Compound I-254] | 0.001 to 0.01 | –
CN1CC=C[C@@H](Nc2nnc(-c3ccc(C(F)(F)F)cc3O)c3cncn23)C1 [Compound I-460] | 0.001 to 0.01 | –
Oc1cc(Cl)ccc1-c1nnc(N[C@@H]2CCC[C@H](O)C2)n2cncc12 [Compound I-578] | < 0.001 | –
CN1CCC[C@@H](Nc2nnc(-c3ccc(C4CC4)cc3C(F)F)c3ccncc23)C1 [Compound I-248] | 0.001 to 0.01 | –
COc1ccc(-c2nnc(NC[C@@H](C)O)n3cccc23)c(O)c1 [Compound I-587] | 0.01 to 0.1 | –
Cc1ccc(-c2nnc(N[C@@H]3CCCN(C)C3)c3ccccc23)c(OC(F)F)c1 [Compound I-135] | 0.001 to 0.01 | –
Oc1cc(C(F)(F)F)ccc1-c1nnc(NCCN2CCOCC2)c2ccccc12 [Compound I-108] | 0.01 to 0.1 | –
CCN1CCC[C@@H](Nc2nnc(-c3ccc(OC)cc3O)c3ccnn23)C1 [Compound I-632] | 0.001 to 0.01 | –
Cc1cc(F)c(-c2nnc(N[C@@H]3CCCN(C4CCOC4)C3)n3cccc23)c(OC(F)F)c1 (some centres unmarked) [Compound I-488] | 0.01 to 0.1 | –

SMILES | IC50 [1] [µM] | IC50 (THP-1 cells) [µM]
Cc1cc2c(-c3ccc(C(F)(F)F)cc3OC(F)F)nnc(N[C@@H]3CCCN(CCO)C3)n2n1 [Compound I-375, (R)-2-(3-((4-(2-(Difluoromethoxy)-4-(trifluoromethyl)phenyl)-2-methylpyrazolo[1,5-d][1,2,4]triazin-7-yl)amino)piperidin-1-yl)ethan-1-ol] | 0.001 to 0.01 | –
CN1CCC[C@@H](Nc2nnc(-c3cccc(F)c3O)c3ccccc23)C1 [Compound I-28] | 0.01 to 0.1 | –
Cc1cncc(-c2nnc(N[C@@H]3CCCN(C)C3)c3ccccc23)c1O [Compound I-159] | 0.1 to 0.3 | –
CN1C[C@H](F)C[C@@H](Nc2nnc(-c3ccc(C(F)(F)F)cc3OC(F)F)c3cncn23)C1 [Compound I-625] | 0.01 to 0.1 | –
COc1cc(C#N)ccc1-c1nnc(N[C@@H]2CCCN(C)C2)n2cccc12 [Compound I-407] | 0.01 to 0.1 | –
CN1CCC[C@H](Cc2nnc(-c3ccc(C(F)(F)F)cc3O)c3ccccc23)C1 [Compound I-97, (R)-2-(4-((1-methylpiperidin-3-yl)methyl)phthalazin-1-yl)-5-(trifluoromethyl)phenol] | < 0.001 | –
Oc1cc(C(F)(F)F)ccc1-c1nnc(NC2CCCCC2)c2cnccc12 [Compound I-288] | 0.001 to 0.01 | –
CN1CC=C(c2ccc(-c3nnc(N[C@@H]4CCCN(C)C4)c4ccccc34)c(O)c2)C1 [Compound I-58] | 0.001 to 0.01 | –
CN(C)C1CCCN(c2nnc(-c3ccc(C(F)(F)F)cc3O)c3cnccc23)C1 (centres unmarked) [Compound I-152] | 0.001 to 0.01 | –
CCN1CCC[C@@H](Nc2nnc(-c3c(O)cc(C)cc3F)c3cncn23)C1 [Compound I-626] | < 0.001 | –
Cc1cc2c(-c3ccc(C(F)(F)F)cc3C(F)(F)F)nnc(N[C@@H]3CCCN(C)C3)n2n1 [Compound I-382] | 0.001 to 0.01 | –
CN1CCC[C@@H](Nc2nnc(-c3ccc(C(F)(F)F)cc3F)c3ccccc23)C1 [Compound I-127] | 0.001 to 0.01 | –
CCN1CCC[C@@H](Nc2nnc(-c3c(O)cc(OC)cc3F)c3cc(C)nn23)C1 [Compound I-555] | < 0.001 | –
CN1C[C@H](O)C[C@@H](Nc2nnc(-c3c(O)cc(C4CC4)cc3F)c3cccn23)C1 [Compound I-387, (3R,5R)-5-[[1-(4-Cyclopropyl-2-fluoro-6-hydroxy-phenyl)pyrrolo[1,2-d][1,2,4]triazin-4-yl]amino]-1-methyl-piperidin-3-ol] | 0.01 to 0.1 | –
Cc1cc2c(-c3ccc(C4CC4)cc3OC(F)(F)F)nnc(N[C@@H]3CCCN(C)C3)n2n1 [Compound I-418] | – | 0.001 to 0.01
CN1CCC[C@@H](Nc2nnc(-c3ccc(Cl)cc3F)c3ccncc23)C1 [Compound I-129] | < 0.001 | –
CN1C[C@H](O)C[C@@H](Nc2nnc(-c3ccc(C(F)(F)F)cc3OC(F)F)c3cccn23)C1 [Compound I-385, (3R,5R)-5-[[1-[2-(Difluoromethoxy)-4-(trifluoromethyl)phenyl]pyrrolo[1,2-d][1,2,4]triazin-4-yl]amino]-1-methyl-piperidin-3-ol] | 0.1 to 0.3 | –
Cc1cc(C)c(-c2nnc(N[C@@H]3CCCN(C)C3)n3cccc23)c(O)c1 [Compound I-477] | 0.001 to 0.01 | –
CN1CCC(CNc2nnc(-c3ccc(C(F)(F)F)cc3O)c3ccncc23)CC1 [Compound I-302] | 0.001 to 0.01 | –
Cc1cc(F)c(-c2nnc(N[C@@H]3CCCOC3)n3cccc23)c(OC(F)F)c1 [Compound I-464] | 0.1 to 0.3 | –
Oc1cc(C(F)(F)F)ccc1-c1nnc(NC[C@@H]2CCCN2)c2ccncc12 [Compound I-110] | < 0.001 | –
